Measured values published in ChEMBL document CHEMBL3232788, “1-(2-Hydroxy-2-methyl-3-phenoxypropanoyl)indoline-4-carbonitrile derivatives as potent and tissue selective androgen receptor modulators” (J Med Chem, 2014).
Active and inactive are the calls of the source. The calls are words filed in the database; no cut-off is given here.

Key:
Androgen receptor [1] = molecular target: T1, Androgen receptor (Homo sapiens, UniProt P10275); test: Agonist activity at human AR expressed in CV1 cells after 17 hrs by luciferase reporter gene assay; type: cell-based, CV-1
T1 sequence (P10275 whole entry): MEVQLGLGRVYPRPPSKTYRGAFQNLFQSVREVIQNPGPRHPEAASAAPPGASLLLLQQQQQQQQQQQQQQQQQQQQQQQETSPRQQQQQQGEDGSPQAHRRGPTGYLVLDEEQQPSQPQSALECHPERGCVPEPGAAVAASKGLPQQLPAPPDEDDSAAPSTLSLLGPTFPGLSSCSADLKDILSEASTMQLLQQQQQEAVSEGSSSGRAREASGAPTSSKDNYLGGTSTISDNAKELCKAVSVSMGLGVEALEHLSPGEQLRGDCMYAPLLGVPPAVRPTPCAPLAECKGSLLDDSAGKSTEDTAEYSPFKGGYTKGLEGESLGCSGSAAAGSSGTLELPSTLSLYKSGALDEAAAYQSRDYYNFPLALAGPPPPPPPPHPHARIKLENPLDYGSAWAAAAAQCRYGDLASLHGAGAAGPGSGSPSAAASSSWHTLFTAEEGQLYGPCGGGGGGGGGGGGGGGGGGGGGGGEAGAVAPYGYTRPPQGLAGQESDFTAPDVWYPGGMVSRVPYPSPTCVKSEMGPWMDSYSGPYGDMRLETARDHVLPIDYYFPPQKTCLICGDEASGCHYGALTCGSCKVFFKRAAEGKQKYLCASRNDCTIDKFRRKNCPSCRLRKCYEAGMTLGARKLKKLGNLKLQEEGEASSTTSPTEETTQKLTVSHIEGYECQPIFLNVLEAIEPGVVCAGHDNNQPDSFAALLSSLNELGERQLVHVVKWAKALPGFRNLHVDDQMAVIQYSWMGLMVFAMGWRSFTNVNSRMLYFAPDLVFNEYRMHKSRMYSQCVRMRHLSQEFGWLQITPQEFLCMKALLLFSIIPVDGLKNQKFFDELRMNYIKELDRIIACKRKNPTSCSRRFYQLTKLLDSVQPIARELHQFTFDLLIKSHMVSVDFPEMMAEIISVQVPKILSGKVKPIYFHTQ

Androgen receptor [2] = molecular target: T1, Androgen receptor; test: Binding affinity to human AR NTD (1 to 561 aa) expressed in CV1 cells coexpressing human AR-LBD (644-919 aa) assessed as N/C-termini interaction by androgenic assay; type: cell-based, CV-1
Androgen receptor [3] = molecular target: T1, Androgen receptor; test: Displacement of [3H]mibolerone from full length human AR expressed in COS cells after 3.5 hrs by liquid scintillation counting; type: cell-based
Rattus norvegicus [4] = test: Increase in levator ani muscle weight in orchidectomized Sprague-Dawley rat at 1 mg/kg, sc qd for 4 days relative to vehicle-treated control; type: functional, organism-based; design: dose 1 mg/kg
Rattus norvegicus [5] = test: Increase in prostate tissue weight in orchidectomized Sprague-Dawley rat at 1 mg/kg, sc qd for 4 days relative to vehicle-treated control; type: ADME, organism-based, Prostate gland; design: dose 1 mg/kg, route subcutaneous; conditions: in vivo, 96 h
Rattus norvegicus [6] = test: Increase in seminal vesicle weight in orchidectomized Sprague-Dawley rat at 1 mg/kg, sc qd for 4 days relative to vehicle-treated control; type: ADME, organism-based; design: dose 1 mg/kg, route subcutaneous; conditions: in vivo, 96 h

Structure (SMILES)	EC50 (Androgen receptor [1]) [nM]	EC50 (Androgen receptor [2]) [nM]	IC50 (Androgen receptor [3]) [nM]	Activity (Rattus norvegicus [4])	Activity (Rattus norvegicus [5])	Activity (Rattus norvegicus [6])
C[C@](O)(COc1ccc(Br)cc1)C(=O)N1CCc2c(C#N)cccc21	0.34	7.6	2.4			
Cc1cc(F)ccc1OC[C@](C)(O)C(=O)N1CCc2c(C#N)cccc21	1.1	72.2	10.7			
C[C@](O)(COc1ccc(C#N)cc1Br)C(=O)N1CCc2c(C#N)cccc21	0.06	0.41	4.8			
C[C@](O)(COc1cccc(Cl)c1)C(=O)N1CCc2c(C#N)cccc21	275	> 10000	107			
COc1cc(Cl)ccc1OC[C@](C)(O)C(=O)N1CCc2c(C#N)cccc21	17.1	> 10000	366			
C[C@](O)(COc1ccccc1F)C(=O)N1CCc2c(C#N)cccc21	14.8	> 10000	10.1			
C[C@](O)(COc1ccc(Br)cc1F)C(=O)N1CCc2c(C#N)cccc21	0.11	0.93	36.8			
C[C@](O)(COc1ccc(Cl)cc1)C(=O)N1CCc2c(C#N)cccc21	3.4	172	36.5			
C[C@](O)(COc1ccc(Cl)cc1Cl)C(=O)N1CCc2c(C#N)cccc21	0.25	1.4	9.1			
COc1ccc(OC[C@](C)(O)C(=O)N2CCc3c(C#N)cccc32)c(Cl)c1	0.61	54.1	3.5			
C[C@](O)(COc1ccc(C#N)cc1F)C(=O)N1CCc2c(C#N)cccc21	0.039	0.14	3.2			
COc1ccc(OC[C@](C)(O)C(=O)N2CCc3c(C#N)cccc32)c(F)c1	2.9	> 10000	427			
COc1cc(C#N)ccc1OC[C@](C)(O)C(=O)N1CCc2c(C#N)cccc21	7.6	2120	16.1			
C[C@](O)(COc1ccc(Cl)cc1F)C(=O)N1CCc2c(C#N)cccc21	0.28	0.85	5			
CCC(=O)O[C@H]1CC[C@H]2[C@@H]3CCC4=CC(=O)CC[C@]4(C)[C@H]3CC[C@]12C [TESTOSTERONE PROPIONATE]				Active	Toxic	Toxic
C[C@](O)(COc1ccccc1Cl)C(=O)N1CCc2c(C#N)cccc21	6.1	4820	56.3			
COc1ccc(OC[C@](C)(O)C(=O)N2CCc3c(C#N)cccc32)cc1	8.6	624	146			
C[C@](O)(COc1ccc(C#N)cc1)C(=O)N1CCc2c(C#N)cccc21	1.8	71.8	16.4			
C[C@](O)(COc1cccc(F)c1)C(=O)N1CCc2c(C#N)cccc21	37.4	1530	34.2			
C[C@](O)(COc1ccccc1)C(=O)N1CCc2c(C#N)cccc21	689	> 10000	99.5			
C[C@](O)(COc1ccc(F)cc1Br)C(=O)N1CCc2c(C#N)cccc21	0.4	39.5	11.4			
COC(=O)c1ccc(OC[C@](C)(O)C(=O)N2CCc3c(C#N)cccc32)cc1	6.8	> 10000	133			
C[C@](O)(COc1ccc(-c2cocn2)cc1)C(=O)N1CCc2c(C#N)cccc21	7.2	> 10000	179			
C[C@](O)(COc1ccccc1C#N)C(=O)N1CCc2c(C#N)cccc21	0.15	0.77	14.3			
C[C@](O)(COc1ccc(F)cc1C#N)C(=O)N1CCc2c(C#N)cccc21	0.074	0.74	9.1			
C[C@](O)(COc1ccccc1C(F)(F)F)C(=O)N1CCc2c(C#N)cccc21	1.7	372	60.9			
C[C@](O)(COc1ccc(C(F)(F)F)cc1)C(=O)N1CCc2c(C#N)cccc21	1.8	> 10000	33.1			
